Test systems include CMS; MOLM-13; ML-2; CHRF288-11; U937; MV4-11; CMK; M07e.
What all share (parameters): species or system AML cell lines (8); Primary HTS, single concentration about 10 uM, Cell Titer Glo viability; log10 luminescence, per cent inhibition relative to cycloheximide control
What all share (details): 72 h, relative to cycloheximide control, log10 luminescence, inhibitor

Like-named read-outs stand apart in the source and are kept apart here.

Consider `N=C1NC(=O)N2CC12` (stereo not drawn) [SJ000564440-1, IMEXON], for which the CMS %inh in the test on CMS turned out to be 13.09%. Moreover, the MOLM-13 %inh in the test on MOLM-13 is 4.482%. Further, the ML-2 %inh in the test on ML-2 was found to be 2.993%. Also, the CHRF288-11 %inh in the test on CHRF288-11 came out at 28.3%. Besides, the U937 %inh in the test on U937 was 11.23%. Further, the MV4-11 %inh with MV4-11 was found to be 2.121%. For the same compound, the CMK %inh in the test with CMK is -0.6297%. In addition, the M07e %inh in the test with M07e was determined as 3.11%.
Take `CC1=C(C(=O)Nc2ccc3[nH]ncc3c2)C(c2ccc3ccccc3c2)CC(=O)N1` (stereo not drawn) [SJ000573139-1, KG204183-124A1]: the CMS %inh in the test on CMS is on record as 1.368%. For the same compound, the MOLM-13 %inh in the test with MOLM-13 amounted to 1.247%. In addition, the ML-2 %inh in the test on ML-2 was found to be 11.01%. The CHRF288-11 %inh with CHRF288-11 was 15.76%. The U937 %inh in the test on U937 came to 2.011%. In the test with MV4-11, the MV4-11 %inh is 30.46%. The CMK %inh in the test on CMK is 48.89%. Also, the M07e %inh in the test with M07e is on record as 1.439%.
Turning to `COc1cc2c(cc1Nc1nc(Nc3ccsc3C(N)=O)c3cc[nH]c3n1)N(C(=O)CN(C)C)CCC2(C)C` [SJ000573038-1, N3343-83-1], the CMS %inh in the test on CMS stood at 16.39%. Further, the MOLM-13 %inh in the test with MOLM-13 is listed as 92.5%. Moreover, in the test on ML-2, the ML-2 %inh is reported as 44.68%. Moreover, in the test on CHRF288-11, the CHRF288-11 %inh came out at 128.8%. In the test with U937, the U937 %inh was found to be 51.73%. Besides, the MV4-11 %inh in the test with MV4-11 is reported as 43.78%. Moreover, the CMK %inh with CMK is listed as 81.26%. Also, in the test on M07e, the M07e %inh worked out at 57.48%.
For `CN(C(=O)c1cc2ccccc2cc1C(=O)C(c1cccc2ccccc12)P(=O)(O)O)C1CCN(C(=O)c2ccccc2)CC1` (stereo not drawn) [SJ000556691-1, CATHEPSIN G INHIBITOR I], the CMS %inh in the test on CMS is given as 2.107%. In the test on MOLM-13, the MOLM-13 %inh stood at 0.5105%. In addition, the ML-2 %inh in the test on ML-2 stood at 0.3338%. The CHRF288-11 %inh in the test on CHRF288-11 came out at 9.27%. Moreover, the U937 %inh in the test on U937 is on record as -1.516%. For the same compound, the MV4-11 %inh with MV4-11 came to 1.483%. Besides, the CMK %inh in the test with CMK was determined as 10.35%. The M07e %inh in the test on M07e was 0.0007022%.
As for `C[C@H](O)CNc1cc(-c2[nH]c3cccnc3c2-c2ccc(F)cc2)ccn1` [SJ000580968-1], the CMS %inh in the test with CMS is on record as -1.462%. Besides, the MOLM-13 %inh in the test with MOLM-13 came out at 2.412%. The ML-2 %inh in the test on ML-2 is -2.119%. For the same compound, the CHRF288-11 %inh in the test on CHRF288-11 is given as -0.7944%. Also, the U937 %inh in the test on U937 was 2.723%. The MV4-11 %inh in the test with MV4-11 stood at 1.217%. For the same compound, the CMK %inh in the test with CMK amounted to 8.696%. Further, in the test on M07e, the M07e %inh is -0.9304%.
Consider `CC1(C)O[C@@H]2C[C@H]3[C@@H]4CCC5=CC(=O)C=C[C@]5(C)[C@H]4[C@@H](O)C[C@]3(C)[C@]2(C(=O)CO)O1` [SJ000565170-1, DESONIDE], for which the CMS %inh in the test with CMS is listed as 1.425%. Moreover, the MOLM-13 %inh with MOLM-13 is 5.492%. For the same compound, in the test with ML-2, the ML-2 %inh is -0.7887%. The CHRF288-11 %inh in the test with CHRF288-11 stood at 6.238%. The U937 %inh in the test on U937 is 6.18%. In addition, in the test on MV4-11, the MV4-11 %inh was 0.7481%. For the same compound, the CMK %inh in the test on CMK came out at 3.484%. Also, the M07e %inh in the test on M07e was 8.441%.
For `CNC(=O)c1cncc(/C=C/c2ccccc2C)c1` [SJ000573069-1, U12068/59/1], the CMS %inh with CMS amounted to 0.1448%. In the test with MOLM-13, the MOLM-13 %inh was -1.542%. Also, the ML-2 %inh in the test with ML-2 was -0.01519%. Moreover, the CHRF288-11 %inh in the test on CHRF288-11 is given as -2.201%. In the test with U937, the U937 %inh is recorded as -1.047%. The MV4-11 %inh in the test on MV4-11 is reported as -0.4269%. For the same compound, the CMK %inh with CMK is reported as -3.696%. In the test on M07e, the M07e %inh is given as 4.224%.
On to `O=C(O[C@H]1C[C@H]2CC[C@@H](C1)[N+]21CCCC1)C(O)(c1ccccc1)c1ccccc1` [SJ000556733-2, TROSPIUM CHLORIDE], for which the CMS %inh in the test on CMS (CMS %inh, 10 µM) is recorded as -2.193%. For the same compound, in the test on MOLM-13 (MOLM-13 %inh, 10 µM), the MOLM-13 %inh turned out to be 0.236%. Moreover, the ML-2 %inh in the test on ML-2 (ML-2 %inh, 10 µM) is reported as 4.125%. Also, the CHRF288-11 %inh in the test with CHRF288-11 (CHRF288-11 %inh, 10 µM) is given as 0.2164%. For the same compound, in the test with U937 (U937 %inh, 10 µM), the U937 %inh is on record as -0.2464%. Further, the MV4-11 %inh in the test with MV4-11 (MV4-11 %inh, 10 µM) is 1.274%. Also, the CMK %inh with CMK (CMK %inh, 10 µM) is -0.8375%. Moreover, in the test on M07e (M07e %inh, 10 µM), the M07e %inh is 4.258%.
Take `O=C(O[C@H]1CN[C@H](C#Cc2cc3ncnc(Nc4ccc(Cc5ccccc5)cc4)c3s2)C1)N1CCOCC1` [SJ000573334-1, U20046/184/1]: the CMS %inh in the test with CMS was found to be 1.486%. Further, the MOLM-13 %inh with MOLM-13 is listed as 61.51%. Moreover, in the test on ML-2, the ML-2 %inh amounted to 11.25%. Moreover, in the test on CHRF288-11, the CHRF288-11 %inh is listed as 4.257%. For the same compound, the U937 %inh in the test with U937 is 2.636%. For the same compound, the MV4-11 %inh in the test with MV4-11 is 4.189%. Also, the CMK %inh in the test with CMK is listed as 86.74%. Further, the M07e %inh with M07e turned out to be 4.781%.
As to `C[C@H](CS)C(=O)N1CCC[C@H]1C(=O)O` [SJ000286908-8, CAPTOPRIL], in the test with CMS (CMS %inh, 10 µM), the CMS %inh is -1.291%. The MOLM-13 %inh with MOLM-13 (MOLM-13 %inh, 10 µM) is recorded as 0.1339%. The ML-2 %inh in the test on ML-2 (ML-2 %inh, 10 µM) is recorded as -1.462%. The CHRF288-11 %inh in the test with CHRF288-11 (CHRF288-11 %inh, 10 µM) worked out at 4.869%. Besides, the U937 %inh with U937 (U937 %inh, 10 µM) is -1.359%. The MV4-11 %inh in the test with MV4-11 (MV4-11 %inh, 10 µM) was -2.616%. The CMK %inh with CMK (CMK %inh, 10 µM) turned out to be 0.6591%. Further, the M07e %inh with M07e (M07e %inh, 10 µM) is listed as -2.045%.
With `CCC(=O)Nc1ccc(C)c(-c2ccc(C(=O)NCC3CC3)cc2)c1` [SJ000573087-1, R7387/20/4], the CMS %inh in the test on CMS is reported as 2.476%. The MOLM-13 %inh with MOLM-13 stood at 6.641%. Also, the ML-2 %inh in the test on ML-2 is -0.3215%. For the same compound, the CHRF288-11 %inh in the test on CHRF288-11 is given as 3.258%. In addition, in the test on U937, the U937 %inh stood at 1.348%. The MV4-11 %inh with MV4-11 was determined as 5.047%. Besides, the CMK %inh in the test with CMK is given as 1.803%. Also, the M07e %inh in the test on M07e was found to be 5.006%.
For the compound `COc1ccc(F)cc1C(=O)c1cnc(NC2CCN(S(C)(=O)=O)CC2)nc1N` [SJ000581021-1], the CMS %inh with CMS was 25.29%. The MOLM-13 %inh in the test with MOLM-13 was 27.57%. The ML-2 %inh in the test with ML-2 came out at 16.42%. Further, the CHRF288-11 %inh in the test with CHRF288-11 amounted to 14.05%. In the test with U937, the U937 %inh turned out to be 26.91%. The MV4-11 %inh in the test on MV4-11 was found to be 23.41%. Besides, the CMK %inh in the test on CMK is 28.45%. Further, the M07e %inh in the test on M07e is recorded as 26.32%.
Consider `Clc1ccc2c(N3CCN(CCCN4CCN(c5ccnc6cc(Cl)ccc56)CC4)CC3)ccnc2c1` [SJ000518980-1, PIPERAQUINE PHOSPHATE], for which, in the test on CMS, the CMS %inh stood at 3.926%. Moreover, in the test with MOLM-13, the MOLM-13 %inh is recorded as -0.1677%. Also, the ML-2 %inh in the test with ML-2 is given as -2.97%. Further, in the test on CHRF288-11, the CHRF288-11 %inh is -8.556%. In addition, the U937 %inh in the test with U937 was -2.593%. Besides, the MV4-11 %inh with MV4-11 was 0.4168%. Besides, in the test with CMK, the CMK %inh is recorded as -2.506%. Also, the M07e %inh in the test on M07e is reported as -0.3802%.
Consider `CC(=O)Nc1ccc2c(C3=C(c4cn(C)c5ccccc45)C(=O)NC3=O)cn(C)c2c1` [SJ000581111-1], for which the CMS %inh in the test on CMS came out at 99.23%. For the same compound, in the test on MOLM-13, the MOLM-13 %inh is on record as 95.13%. Besides, in the test on ML-2, the ML-2 %inh came to 39.48%. Also, the CHRF288-11 %inh in the test on CHRF288-11 was found to be 123.6%. Also, the U937 %inh with U937 is 75.9%. In addition, the MV4-11 %inh with MV4-11 stood at 74.04%. Moreover, in the test with CMK, the CMK %inh was found to be 104.7%. In addition, the M07e %inh in the test with M07e was 89.33%.
For `Cn1cc(C2=C(c3cn(C)c4ncccc34)C(=O)NC2=O)c2ccccc21` [SJ000581101-1], the CMS %inh in the test on CMS was found to be 2.698%. Also, the MOLM-13 %inh in the test with MOLM-13 is given as 47.28%. Moreover, the ML-2 %inh in the test with ML-2 came to 0.3677%. The CHRF288-11 %inh in the test with CHRF288-11 is 23.35%. Moreover, in the test with U937, the U937 %inh turned out to be 8.822%. Besides, the MV4-11 %inh in the test with MV4-11 is listed as 0.9422%. The CMK %inh in the test on CMK was 41.81%. For the same compound, in the test on M07e, the M07e %inh came out at 5.727%.

(Values after PMC6522510 (Nature Communications, 2019).)
